Data taken from patent US20260226048A1, “MULTI-CYCLIC IRAK AND FLT3 INHIBITING COMPOUNDS AND USES THEREOF” (CHILDREN'S HOSPITAL MEDICAL CENTER, priority 2023, published 2026).

How the values were obtained:
Format in all cases: cell-based
FLT3 = target: T1, FLT3 (Homo sapiens, UniProt P36888); assay: Reaction Biology NanoBRET target engagement assay in HEK-293 cells, FLT3; settings: live HEK-293 cells transfected with Kinase-NanoLuc fusion, 1 hour
T1 sequence (P36888 27-993): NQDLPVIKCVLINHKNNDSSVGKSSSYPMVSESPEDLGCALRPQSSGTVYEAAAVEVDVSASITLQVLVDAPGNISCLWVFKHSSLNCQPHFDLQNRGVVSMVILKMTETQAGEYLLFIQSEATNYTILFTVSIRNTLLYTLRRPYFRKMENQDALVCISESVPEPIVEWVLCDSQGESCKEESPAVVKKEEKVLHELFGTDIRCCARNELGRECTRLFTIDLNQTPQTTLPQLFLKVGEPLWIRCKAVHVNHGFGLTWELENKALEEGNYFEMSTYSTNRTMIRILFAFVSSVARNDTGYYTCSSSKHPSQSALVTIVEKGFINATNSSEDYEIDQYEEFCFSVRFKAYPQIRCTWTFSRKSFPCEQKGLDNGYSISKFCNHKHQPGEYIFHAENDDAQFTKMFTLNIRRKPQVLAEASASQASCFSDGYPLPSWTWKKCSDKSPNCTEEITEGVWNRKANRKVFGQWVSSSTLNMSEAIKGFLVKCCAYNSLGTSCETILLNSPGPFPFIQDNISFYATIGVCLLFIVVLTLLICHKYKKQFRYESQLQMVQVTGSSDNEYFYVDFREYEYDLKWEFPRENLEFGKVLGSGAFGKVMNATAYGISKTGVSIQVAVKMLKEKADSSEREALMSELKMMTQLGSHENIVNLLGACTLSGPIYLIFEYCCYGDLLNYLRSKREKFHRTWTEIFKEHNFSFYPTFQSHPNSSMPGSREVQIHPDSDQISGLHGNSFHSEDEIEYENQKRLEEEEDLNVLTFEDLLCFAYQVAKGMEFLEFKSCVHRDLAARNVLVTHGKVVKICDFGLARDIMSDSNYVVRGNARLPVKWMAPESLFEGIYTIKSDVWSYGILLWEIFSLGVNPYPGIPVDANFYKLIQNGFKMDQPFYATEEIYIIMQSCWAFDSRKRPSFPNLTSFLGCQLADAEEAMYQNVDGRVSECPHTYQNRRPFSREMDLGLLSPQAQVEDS
Excerpt: The NanoBRET assay measures kinase engagement in real time in the context of the intact cell. Unlike the previously described biochemical kinase assay methodology in Example 33, the NanoBRET assay measures the binding and activity characteristics under equilibrium conditions using full-length kinases in the presence of cellular concentrations of ATP in live, uncompromised cells. As such, the assay provides a more relevant assessment of kinase potency and selectivity that would be expected to be observed in the native cellular environment, where potency is often considerably lower than that observed in the isolated biochemical assays (Vasta, J. D. et al., (2018) Cell Chem. Biol. 25, 206-214). The assay uses a Kinase-NanoLuc® fusion vector expressing a kinase protein to which a luciferase tag has been added, a cell-permeant fluorescent NanoBRET™ tracer, a NanoLuc® substrate, and an extracellular NanoLuc® inhibitor. Upon expression of the luciferase-tagged kinase, cells will produce a strong BRET signal only in the presence of the NanoBRET™ tracer. The extracellular NanoLuc® inhibitor ensures that the BRET signal observed emanates only from live cells. Because the BRET signal has tight distance constraints, addition of the test compound will decrease the BRET signal if the compound competes with the NanoBRET™ tracer for binding to the kinase domain. Under the appropriate tracer conditions established by the manufacturer, quantitative intracellular affinity and relative potency can then be determined using Mass Action model equations.
HEK-293 cells were purchased from ATCC. FuGENEHD Transfection Reagent, Kinase-NanoLucfusion plasmids, Transfection Carrier DNA, NanoBRETTracers and dilution buffer, NanoBRETNano-Glo Substrate, Extracellular NanoLucInhibitor were obtained from Promega.
Assays were conducted following Promega assay protocol with some modifications. HEK-293 Cells were transiently transfected with Kinase-NanoLucFusion Vector DNA by FuGENEHD Transfection Reagent. Testing compounds were delivered into 384 well assay plate by Echo 550 (LabcyteInc, Sunnyvale, CA). Transfected cells were harvested and mixed with NanoBRETTracer Reagent and dispensed into 384 well plates and incubated at 37° C. in 5% C02 cell culture incubator for 1 hour. The NanoBRETNano-Glo Substrate plus Extracellular NanoLucInhibitor Solution were added into the wells of the assay plate and incubated for 2-3 minutes at room temperature. The donor emission wavelength (460 nm) and acceptor emission wavelength (600 nm) were measured in the EnVisionplate reader. The BRET Ratios were calculated. BRET Ratio=[(Acceptor sample÷Donor sample)−(Acceptor no-tracer control÷Donor no-tracer control)]. The IC50 values of compounds were calculated with Prism GraphPad program.
• 1). Cultivate HEK-293 cells (70-80% confluence) appropriately prior to assay. Trypsinize and collect HEK-293 cells. • 2). Prepare lipid: DNA complexes as follows: • a. Prepare a 10 μg/ml solution of DNA in Opti-MEM without serum that consists of the following ratios of carrier DNA and DNA encoding NanoLuc® fusion. 9.0 μg/mL of Transfection Carrier DNA, 1.0 μg/mL of NanoLuc fusion vector DNA and 1 mL of Opti-MEM without phenol red. Mix thoroughly. • b. Add 30 μl of FuGENE HD Transfection Reagent into each milliliter of DNA mixture to form lipid: DNA complex. • c. Mix by inversion 10 times. • d. Incubate at ambient temperature for 20 minutes to allow complexes to form. • 3). In a sterile, conical tube, mix 1 part of lipid:DNA complex with 20 parts of HEK-293 cells in suspension. Mix gently by inversion 5 times. • 4). Dispense cells+lipid:DNA complex into a sterile tissue culture dish and incubate for 22-24 hours.
Each test compound is delivered from the compound source plate to the wells of 384-well white NBS plate by Echo 550.
3. Preparation of Cells with NanoBRET™ Tracer Reagent • 1). […]

MOLM14 D835Y cells = assay: MOLM14 D835Y cell viability assay (Cell Titer Glo); settings: Homo sapiens, MOLM-14, 48 h, cell viability, Cell Titer Glo, 48 hours; read-out: MOLM14 D835Y IC50
In short: (§1)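 MOLM14 cells with FLT3 D835Y or F691L kinase-domain resistance mutations seeded at 1000 cells/well and exposed to compound for 48 h under standard incubator conditions. Viability read by CellTiter-Glo luminescence after 15 min at room temperature.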

MOLM14 F691L cells = assay: MOLM14 F691L cell viability assay (Cell Titer Glo); settings: Homo sapiens, MOLM-14; cell viability, Cell Titer Glo, 48 hours; read-out: MOLM14 F691L IC50
In short: as §1

COc1cc2ncc(-c3nc(N[C@H]4CNCC[C@@H]4F)ncc3F)n2nc1N1CCCS1(=O)=O [Compound 112a, 2-(3-(5-fluoro-2-(((3S,4S)-4-fluoropiperidin-3-yl)amino)pyrimidin-4-yl)-7-methoxyimidazo[1,2-b]pyridazin-6-yl)isothiazolidine 1,1-dioxide]
IC50 (FLT3): < 0.5 nM | IC50 (MOLM14 D835Y cells): 3 nM | IC50 (MOLM14 F691L cells): 23 nM
